Results on three compounds are retold here after patent US9000031B2, “Thioxanthone-based autophagy inhibitor therapies to treat cancer” (Spectrum Pharmaceuticals, Inc., priority 2010, dated 2015).

Molecules are shown by their SMILES.

In experiment [1] the test system is breast cancer cell lines. The experiment in a line: Apoptosis by PI staining and FACS analysis of sub-G0/G1 DNA content. In kind it is cell-based. Here is the method:
(§1) Cells from the breast cancer cell lines MDA-MB-231, BT-474, SKBR-3, and BT-20 were seeded into 96-well microculture plates at 10,000 cells per well and allowed to attach for 24 hours. Cells were then treated with 10 μM Lucanthone for 72 hours (48 hours for apoptosis assay). For immunoblotting, cells were harvested after treatment and cathepsin D levels were determined as described above. Pro-apoptotic effects following in vitro drug exposure were quantified by propidium iodide (PI) staining and fluorescence-activated cell sorting (FACS) analysis of sub-G0/G1 DNA content. Data is representative of three independent experiments.
Cells from the breast cancer cell lines MDA-MB-231, BT-474, SKBR-3, and BT-20 were seeded into 96-well microculture plates at 10,000 cells per well and allowed to attach for 24 hours. For immunoblotting, cells were then treated with 10 μM Lucanthone, 2.5 μM Vorinostat, or the combination for 72 hours, harvested, and cathepsin D levels were determined as described above. For the MTT cell viability assay, the cells were then treated with 10 μM Lucanthone, 2.5 μM Vorinostat, or the combination for 72 hours. After treatment, 3-(4,5-dimethylthiazol-2-yl)-2,5, diphenyltetrazolium bromide (MTT) was added after treatment and cell viability was quantified using a BioTek (Winooski, Vt.) microplate reader. […] Pro-apoptotic effects following in vitro drug exposure were quantified by propidium iodide (PI) staining and fluorescence-activated cell sorting (FACS) analysis of sub-G0/G1 DNA content. […]
Cells from the breast cancer cell lines MDA-MB-231 and BT-20 were seeded into 96-well microculture plates at 10,000 cells per well and allowed to attach for 24 hours. […] After treatment, 3-(4,5-dimethylthiazol-2-yl)-2,5, diphenyltetrazolium bromide (MTT) was added after treatment and cell viability was quantified using a BioTek (Winooski, Vt.) microplate reader. […] Pro-apoptotic effects following in vitro drug exposure were quantified by propidium iodide (PI) staining and fluorescence-activated cell sorting (FACS) analysis of sub-G0/G1 DNA content. […]

The test system of the next experiment is LC3-II, SQSTM1/p62. As to the kind of experiment: LC3-II formation and SQSTM1/p62 accumulation with Bafilomycin A1 (FIG. 1F). The experiment is classed as cell-based.
Experiment [2] concerns breast cancer cell lines. As to the kind of experiment: Cell viability by MTT assay in breast cancer cell lines. The experiment is classed as cell-based. The settings on record: for IC50: 72 h, read-out: mean IC50, breast cancer cell viability.
Text: (§2) Data is representative of three independent experiments.
as §2, §2

Experiment [3] concerns MDA-MB-231 breast cancer cell line. The experiment in a line: Lysosomal membrane permeabilization by loss of acridine orange fluorescence. The settings on record: MDA-MB-231 cells, 10 μM Lucanthone or 50 μM Chloroquine, 48 hours. In kind it is cell-based. How it is done:
The appearance of LMP was monitored by loss of acridine orange fluorescence. Acidic lysosomes were visualized by acridine orange staining. […] Cells were washed with PBS and images were captured using an Olympus fluorescent microscope. Based on the acidity, lysosomes appeared as orange fluorescent cytoplasmic vesicles. Quantification of 5 random fields of acridine orange intensity was measured by immunofluorescence and image acquisition were performed using Image-Pro Plus software Version 6.2.1.

Experiment [4] has the same test system. As to the kind of experiment: Vacuolization by Giemsa staining and transmission electron microscopy. The experiment is classed as cell-based. The settings on record: MDA-MB-231 cells, 48 hours; for accumulation of electron dense particles: 10 μM Lucanthone or 50 μM Chloroquine, transmission electron microscopy. How it is done:
Increased vacuolization was visualized by Giemsa staining and transition electron microscopy. […] After drug treatment, cells were washed with PBS and fixed in methanol for 5 minutes. Cells were then incubated for 1 hour in Giemsa stain diluted 1:20 with deionized water. Cells were rinsed with water and imaged using an Olympus fluorescent microscope. Image-Pro Plus software Version 6.2.1 was used for image acquisition. Transmission electron microscopy of cells was performed using routine procedures. Sections were cut in an LKB Ultracut microtome (Leica, Deerfield, Ill.), stained with uranyl acetate and lead citrate, and examined in a JEM 1230 transmission electron microscope (JEOL, USA, Inc., Peabody, Mass.). Images were captured using the AMT Imaging System (Advanced Microscopy Techniques Corp, Danvers, Mass.).

Experiment [5] deals with cathepsin D. As to the kind of experiment: Cathepsin D protein levels and aggregation by immunocytochemistry. The experiment is classed as cell-based. The settings on record: immunocytochemistry (FIG. 3C).
The test system of experiment [6] is HCT116 colorectal cancer cell lines. The experiment in a line: Cell viability in isogenic HCT116 p53 cell lines. The experiment is classed as cell-based. Conditions: HCT116 p53+1^+ and p53−1^− cell lines. The source says: (§3) Loss of function of p53 is a frequent event in human cancer that is associated with tumorigenesis and drug resistance. […] To investigated the role of p53 in Lucanthone-mediated cell death, […]

In a further experiment the test system is LC3-II. The experiment in a line: Accumulation of LC3-II by immunocytochemistry. In kind it is cell-based. Conditions: MDA-MB-231 cells, 10 μM Lucanthone, 48 hours. Here is the method: Accumulation of LC3-II was visualized by immunocytochemistry. Cells from a MDA-MB-231 breast cancer cell line were plated on chamber slides and allowed to attach overnight. […] Following drug treatment, cells were fixed with 4% paraformaldehyde, permeabilized using 0.2% TRITON-X-100, and incubated overnight with indicated primary antibodies. Alexa Fluor 488 conjugated fluorescent secondary antibodies were used to visualize protein localization. Images were captured using an Olympus fluorescent microscope (Center Valley, P A) with a DP71 camera and a 60× objective. Image-Pro Plus software Version 6.2.1 (MediaCybernetics, Bethesda, Md.) was used for image acquisition.

For experiment [7], the system named is MDA-MB-231 and BT-20 breast cancer cell lines. The experiment in a line: Affymetrix expression arrays. The experiment is classed as cell-based, human. The settings on record: MDA-MB-231 and BT-20 cells, 10 μM Lucanthone, 48 hours. Here is the method:
To further characterize the effects of Lucanthone on breast cancer cells, expression profiling was performed on breast cancer cell lines. Cells from a MDA-MB-231 and a BT-20 breast cancer cell line were treated with 10 μM Lucanthone for 48 hours. Total RNA was isolated using the RNeasy Plus Mini Kit (Qiagen, Germantown, Md.) and treated with TURBO DNA-Free™ Kit (Applied Biosystems, Foster City, Calif.). 300 ng of total RNA per sample was amplified and hybridized to […]® Human Gene 1.0 ST arrays (Affymetrix, Inc., Santa Clara, Calif.) according to the manufacturer's instructions. These arrays assay for the expression of about 28,869 well-annotated genes with 764,885 distinct probes. Affymetrix CEL files were imported into PARTEK® Genomics Suite™ 6.4 (Partek Inc., St. Louis, Mo.) using the default Partek normalization parameters and the robust multi-array average (RMA) analysis adjusted for probe sequence and GC content (GC-RMA). Data normalization was performed across all arrays using quantile normalization.

Experiment [8] deals with cathepsin D. The experiment in a line: Quantitative real-time PCR analysis of cathepsin D. The experiment is classed as cell-based. Conditions: MDA-MB-231 and BT-20 cells, 10 μM Lucanthone, 48 hours, standardized to GAPDH. How it is done: The lysosomal protease cathepsin D is a key mediator of apoptosis and its release into the cytosol has been reported to promote cell death. Considering this, we further evaluated the role of cathepsin D during Lucanthone-mediated cell death using quantitative real-time PCR (qRT-PCR). To perform qRT-PCR, cells from a MDA-MB-231 or a BT-20 cell lines were treated with 10 μM Lucanthone for 48 hours and then harvested for analysis. Total RNA was isolated using the RNeasy Plus Mini Kit (Qiagen, Germantown, Md.) and treated with TURBO DNAfree™ Kit (Applied Biosystems, Foster City, Calif.). First-strand cDNA synthesis was performed from 1 μg RNA in a 20 μL reaction mixture using the high-capacity cDNA Reverse Transcription Kit (Applied Biosystems, Foster City, Calif.). Cathepsin D and GAPDH transcripts were amplified using commercially available TaqMan@Gene expression assays (Applied Biosystems, Foster City, Calif.). Levels of mRNAs were standardized to the expression of GAPDH and relative gene expression was calculated with the 2^−ΔCt method.
A general note: Quantitative PCR measures a nucleic acid by following its amplification.

A further experiment deals with SQSTMI/p62. As to the kind of experiment: SQSTMI/p62 levels and aggregation by immunoblotting and immunocytochemistry. Conditions: MDA-MB-231 cells. The experiment is classed as cell-based. Here is the method:
This protein is degraded by autophagy, localized to cellular inclusion bodies, and has been proposed to play a role in facilitating protein aggregate clearance by autophagy. As such, a disruption of this process would result in the accumulation of SQSTMI/p62.
(§4) Levels and aggregation of SQSTMI/p62 were determined by immunoblotting and immunocytochemistry, respectively. […] Cells were harvested and were then lysed using routine procedures. Approximately 50 μg of total cellular protein from each sample were subjected to SDS-PAGE, proteins were transferred to nitrocellulose membranes, and the membranes were blocked with 5% nonfat milk in a Tris-buffered saline solution containing 0.1% TWEEN-20 for 1 hour. The blots were then probed overnight at 4° C. with primary antibodies, washed, and probed with species-specific secondary antibodies coupled to horseradish peroxidase. Immunoreactive material was detected by enhanced chemiluminescence (West Pico, Pierce, Inc., Rockville, Ill.).
For orientation: A western blot detects proteins with antibodies after separation by electrophoresis.

Experiment [9] deals with MDA-MB-231 breast cancer cell line. As to the kind of experiment: Lucanthone-induced apoptosis after cathepsin D siRNA knockdown. In kind it is cell-based. The settings on record: MDA-MB-231 cells, 100 nM cathepsin D siRNA vs non-target siRNA, 10 μM Lucanthone, 48 hours. How it is done: To further establish the mechanistic role of cathepsin D in Lucanthone-induced apoptosis, siRNA was used to knockdown its expression (FIG. 4C). Preparation of siRNAs Cahepsin D and non-target SMARTpool siRNA were obtained from Dharmacon (Lafayette, Colo.). Cells from a MDA-MB-231 breast cancer cell line were transfected with 100 nM of either non-target or cathepsin D siRNA using Oligofectamine (Invitrogen, Carlsbad, Calif.) according to the manufacturers protocol. Transfected cells were incubated at 37° C. for 24 hours and then treated with 10 μM Lucanthone for 48 hours. Efficiency of RNAi was measured at 48 hours by immunoblotting using an α-cathepsin D antibody. Apoptosis was determined by PI staining and flow cytometry.

Experiment [10] concerns cathepsin D. As to the kind of experiment: Cathepsin D accumulation in isogenic HCT116 p53 cell lines. The experiment is classed as cell-based. The settings on record: HCT116 p53+1^+ and p53−1^− cell lines.
Text: as §3

In experiment [11] the test system is cathepsin D. The experiment in a line: Cathepsin D expression by immunoblotting in breast cancer cell lines. The experiment is classed as cell-based. The settings on record: MDA-MB-231, BT-474, SKBR-3, BT-20 cells, 10 μM Lucanthone, 72 hours. How it is done:
as §4
as §1, with “experiments. […]” for “experiments.”

Setting [12] is: breast cancer cell lines, FIG. 1G.

What is called IC50 is the point on the concentration scale where inhibition reaches its midpoint.

In the case of `CO/C1=C\C(C)=C\[C@@H](C)[C@@H](O)[C@@H](C)C/C(C)=C/C=C/[C@H](OC)[C@@H]([C@@H](C)[C@@H](O)[C@H](C)[C@@]2(O)C[C@@H](O)[C@H](C)[C@@H](C(C)C)O2)OC1=O` [Bafilomycin A1], the apoptosis entry in the experiment with breast cancer cell lines [1] (setting [12]) is on record as “induce apoptosis in breast cancer cell lines”. Also, in the experiment on LC3-II, SQSTM1/p62, the LC3-II formation entry was “induce LC3-II formation” and the SQSTM1/p62 accumulation entry is listed as “SQSTM1/p62 accumulation”.

As for `CCN(CC)CCCC(C)Nc1ccnc2cc(Cl)ccc12` (stereo not shown) [Chloroquine], the IC50 in the experiment with breast cancer cell lines [2] worked out at 66 µM. Besides, the “acridine orange staining intensity of lysosomes (lysosomal acidity)” value in experiment [3] is on record as “loss of lysosomal acidity”. The “accumulation of electron dense particles” value in [4] is “induced an accumulation of electron dense particles”.

Turning to `CCN(CC)CCNc1ccc(C)c2sc3ccccc3c(=O)c12` [Lucanthone, 1-((2-(Diethylamino)ethyl)amino)-4-methylthioxanthen-9-one], the “cathepsin D protein levels and cytosolic aggregation” value in the experiment with cathepsin D [5] was “dramatically increased cathepsin D protein levels and promoted its cytosolic aggregation”. In addition, the cell viability entry in experiment [6] is “reduced viability to a similar extent”; in the experiment with breast cancer cell lines [2] (panel of seven breast cancer cell lines, varying concentrations, 72 hours, MTT), “reduced cell viability to a similar extent in a panel of seven breast cancer cell lines”. Also, the half-inhibitory concentration (IC50) in the experiment on breast cancer cell lines [2] worked out at 7.2 µM. Further, the “lipid modification of LC3 into LC3-II (punctate localization to autophagosomes)” value with LC3-II was “induced lipid modification of LC3-1 into LC3-II”. Besides, the “acridine orange staining intensity of lysosomes (lysosomal acidity)” value in experiment [3] was “decreased the red staining intensity of lysosomes”. Besides, the “genes induced: cathepsin D (CTSD), MMPI, CYPIAI (upregulated by at least 4-fold)” value in [7] is recorded as “increased in both cell lines”. Also, in experiment [4], the “accumulation of electron dense particles” value is reported as “induced an accumulation of electron dense particles”. For the same compound, the cytoplasmic vacuolization result in [4] (10 μM Lucanthone, Giemsa staining) is listed as “induced cytoplasmic vacuolization”. Moreover, the apoptosis result was “induces apoptosis in four different breast cancer cell lines” in the experiment with breast cancer cell lines [1] (MDA-MB-231, BT-474, SKBR-3, BT-20 cells, 10 μM Lucanthone, 48 hours, PI-FACS) and “induce apoptosis in breast cancer cell lines” in the experiment on breast cancer cell lines [1] (setting [12]). The “cathepsin D mRNA levels (qRT-PCR)” value in the experiment with cathepsin D [8] is “induced a significant increase in cathepsin D levels in both cell lines”. In the experiment on SQSTMI/p62 (10 μM Lucanthone, 48 hours, immunoblotting), the SQSTMI/p62 levels entry is on record as “strongly increased”. The SQSTMI/p62 aggregation entry in the experiment on SQSTMI/p62 (immunocytochemistry) was “aggregated in response to Lucanthone”. Besides, the “sensitivity to Lucanthone-mediated apoptosis of cells with reduced cathepsin D levels” value in experiment [9] was “significantly less sensitive”. Besides, in the experiment on LC3-II, SQSTM1/p62, the LC3-II formation result is given as “induce LC3-II formation”. In the experiment on LC3-II, SQSTM1/p62, the SQSTM1/p62 accumulation entry is “SQSTM1/p62 accumulation”. Besides, the “cathepsin D accumulation” value with cathepsin D [10] is reported as “induced cathepsin D accumulation equally regardless of p53 status”. Besides, in the experiment on cathepsin D [11], the “cathepsin D levels” value is given as “strongly increased”.
